Read-outs that look alike come from different tables or passages of the source.
Assays:
GSK3β (H350L) [1] = biological target: T1, GSK3β (H350L) (Homo sapiens (Human), UniProt P49841); settings: read-out: GSK3β Ki
Protocol: (§1) The assay was initiated with the addition of ATP, following 15 minutes pre-incubation of enzyme and inhibitor at room temperature in the reaction mixture. The reaction was stopped after 30 minutes at room temperature by the addition of 50 μL of 80 mM EDTA.

CDK6/cyclin D3 = CDK6/cyclin D3 (Homo sapiens (Human), UniProt Q00534); assay: CDK6/Cyclin D3 mobility shift assay; settings: Biochemical Assay: CDK6/cyclin D3
Excerpt: CDK6/Cyclin D3 Mobility Shift Assay

CDK9 = CDK9 (Homo sapiens (Human), UniProt P50750); assay: CDK9 biochemical assay
Chain of CDK9 (P50750 whole entry, looked up): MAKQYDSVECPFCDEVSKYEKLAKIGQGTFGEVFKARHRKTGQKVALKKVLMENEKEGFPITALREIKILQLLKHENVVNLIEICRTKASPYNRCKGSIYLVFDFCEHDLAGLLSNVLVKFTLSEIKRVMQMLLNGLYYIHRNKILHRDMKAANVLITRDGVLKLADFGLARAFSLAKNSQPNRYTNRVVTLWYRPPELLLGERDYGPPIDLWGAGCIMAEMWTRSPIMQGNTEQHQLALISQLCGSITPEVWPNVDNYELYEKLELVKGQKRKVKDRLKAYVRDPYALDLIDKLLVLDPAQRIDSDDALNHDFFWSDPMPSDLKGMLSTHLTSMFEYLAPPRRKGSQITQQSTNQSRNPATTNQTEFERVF
Chain of CDK9 (O60563 whole entry partner, looked up): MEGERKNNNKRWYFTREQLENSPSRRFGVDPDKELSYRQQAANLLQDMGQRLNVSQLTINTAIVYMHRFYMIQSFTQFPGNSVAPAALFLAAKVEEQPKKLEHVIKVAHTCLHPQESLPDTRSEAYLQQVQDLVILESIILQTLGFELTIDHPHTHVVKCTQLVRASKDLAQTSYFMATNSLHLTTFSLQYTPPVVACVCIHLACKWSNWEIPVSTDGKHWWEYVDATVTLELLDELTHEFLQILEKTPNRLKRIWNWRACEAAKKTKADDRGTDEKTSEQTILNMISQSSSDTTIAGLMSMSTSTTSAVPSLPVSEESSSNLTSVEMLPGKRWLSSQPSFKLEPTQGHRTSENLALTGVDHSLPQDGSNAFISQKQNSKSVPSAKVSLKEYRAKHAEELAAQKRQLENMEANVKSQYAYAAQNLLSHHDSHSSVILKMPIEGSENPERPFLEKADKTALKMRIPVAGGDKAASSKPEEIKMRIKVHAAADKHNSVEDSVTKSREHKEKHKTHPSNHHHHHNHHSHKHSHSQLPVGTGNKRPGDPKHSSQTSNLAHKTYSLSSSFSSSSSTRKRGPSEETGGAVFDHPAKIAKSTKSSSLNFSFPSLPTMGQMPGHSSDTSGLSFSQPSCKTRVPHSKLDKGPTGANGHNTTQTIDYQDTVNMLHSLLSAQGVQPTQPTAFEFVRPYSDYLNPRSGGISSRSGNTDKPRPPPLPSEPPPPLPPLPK

CDK1/cyclin A2 = CDK1/cyclin A2 (Homo sapiens (Human), UniProt P06493); assay: CDK1/cyclin A2 biochemical assay
Chain of CDK1/cyclin A2 (P06493 whole entry, looked up): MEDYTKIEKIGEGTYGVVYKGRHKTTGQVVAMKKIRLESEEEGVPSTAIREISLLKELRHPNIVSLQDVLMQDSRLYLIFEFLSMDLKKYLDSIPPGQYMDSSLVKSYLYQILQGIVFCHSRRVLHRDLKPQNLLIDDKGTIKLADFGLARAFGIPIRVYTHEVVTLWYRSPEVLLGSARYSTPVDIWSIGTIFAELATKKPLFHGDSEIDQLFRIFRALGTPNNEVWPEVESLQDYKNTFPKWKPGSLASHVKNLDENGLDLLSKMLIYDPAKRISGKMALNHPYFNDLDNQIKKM
Chain of CDK1/cyclin A2 (P20248 whole entry partner, looked up): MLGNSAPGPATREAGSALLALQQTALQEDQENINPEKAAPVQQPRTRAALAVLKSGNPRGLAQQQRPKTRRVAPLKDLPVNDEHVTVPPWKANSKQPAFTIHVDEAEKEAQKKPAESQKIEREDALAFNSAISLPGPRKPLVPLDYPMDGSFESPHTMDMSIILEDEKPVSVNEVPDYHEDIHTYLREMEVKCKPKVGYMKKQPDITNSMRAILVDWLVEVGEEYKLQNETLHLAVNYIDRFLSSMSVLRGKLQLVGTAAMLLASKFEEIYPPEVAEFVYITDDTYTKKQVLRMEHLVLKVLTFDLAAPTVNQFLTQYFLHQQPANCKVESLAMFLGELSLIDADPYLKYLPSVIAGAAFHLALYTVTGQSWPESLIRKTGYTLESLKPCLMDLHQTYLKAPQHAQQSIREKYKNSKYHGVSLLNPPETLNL

[2] = biological target: CDK2/Cyclin E1 full length (Homo sapiens (Human), UniProt P24941); assay: CDK2/Cyclin E1 full length mobility shift assay; format: biochemical
Protocol: Cdk2/Cyclin E1 Full Length Mobility Shift Assay
Wild-type CDK2/wild-type full length Cyclin E1 enzyme complex was produced in-house (baculoviral expression, LJIC-2080/LJIC-2103) and phosphorylated by CDK7/Cyclin H1/Matl enzyme complex with CDK2:CDK7 ratio of 50:1 (concentration mg/mL) in the presence of 10 mM MgCl2 and 5 mM ATP at room temperature for one hour. […] The assay was initiated with the addition of ATP, following a fifteen minutes pre-incubation of enzyme and inhibitor at room temperature in the reaction mixture. The reaction was stopped after 45 minutes at room temperature by the addition of 50 μL of 80 mM EDTA.

GSK3β (H350L) [3] = biological target: T1, GSK3β (H350L); assay: biochemical; settings: GSK3β Ki (nM)
Protocol: as §1

T1 sequence (P49841 whole entry, stated change not applied): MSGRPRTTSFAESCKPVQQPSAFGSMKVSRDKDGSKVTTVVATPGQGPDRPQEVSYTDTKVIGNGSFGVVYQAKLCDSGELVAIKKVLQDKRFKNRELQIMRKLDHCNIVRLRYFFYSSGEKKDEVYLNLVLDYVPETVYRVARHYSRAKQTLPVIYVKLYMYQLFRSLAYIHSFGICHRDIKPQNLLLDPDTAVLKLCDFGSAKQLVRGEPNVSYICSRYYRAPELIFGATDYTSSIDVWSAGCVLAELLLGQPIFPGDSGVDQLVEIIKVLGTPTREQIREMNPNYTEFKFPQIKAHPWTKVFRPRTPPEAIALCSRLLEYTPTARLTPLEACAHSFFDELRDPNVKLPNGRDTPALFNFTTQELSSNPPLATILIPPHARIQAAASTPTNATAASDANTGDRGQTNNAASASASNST
Chain of CDK6/cyclin D3 (Q00534 whole entry, looked up): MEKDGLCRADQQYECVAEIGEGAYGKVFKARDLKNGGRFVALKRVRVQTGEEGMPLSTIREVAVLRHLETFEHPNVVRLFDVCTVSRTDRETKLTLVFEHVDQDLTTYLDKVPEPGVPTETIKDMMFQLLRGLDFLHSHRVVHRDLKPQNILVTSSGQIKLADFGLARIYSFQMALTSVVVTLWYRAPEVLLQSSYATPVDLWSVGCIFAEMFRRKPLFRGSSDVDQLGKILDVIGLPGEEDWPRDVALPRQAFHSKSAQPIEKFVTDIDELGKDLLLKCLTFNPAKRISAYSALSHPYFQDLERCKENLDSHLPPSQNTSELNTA
Chain of CDK6/cyclin D3 (P30281 whole entry partner, looked up): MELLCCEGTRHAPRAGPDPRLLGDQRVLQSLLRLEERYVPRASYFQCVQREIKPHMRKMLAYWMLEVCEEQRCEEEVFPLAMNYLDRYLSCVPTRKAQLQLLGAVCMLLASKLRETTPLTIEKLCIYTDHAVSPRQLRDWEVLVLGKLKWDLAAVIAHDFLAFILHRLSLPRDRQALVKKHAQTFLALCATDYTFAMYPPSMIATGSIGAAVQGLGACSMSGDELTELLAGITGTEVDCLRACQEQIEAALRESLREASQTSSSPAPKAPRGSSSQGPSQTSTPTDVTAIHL

Ki [2] [nM]	Ki (GSK3β (H350L) [3]) [nM]	Structure (SMILES)	Ki (GSK3β (H350L) [1]) [nM]	Ki (CDK6/cyclin D3) [nM]	Ki (CDK9) [nM]	Ki (CDK1/cyclin A2) [nM]
		COCc1cc(C(=O)Nc2cc([C@H]3CC[C@@H](OC(=O)NC(C)C)C3)[nH]n2)n(C)n1 [Example 13, (1R,3S)-3-[3-({[3-(methoxymethyl)-1-methyl-1H-pyrazol-5-yl]carbonyl}amino)-1H-pyrazol-5-yl]cyclopentyl propan-2-ylcarbamate]	538	465	177	
0.32	30.3	COc1ccc(CC(=O)Nc2cc([C@H]3CC[C@@H](OC(=O)NC4(C)CCOC4)C3)[nH]n2)cc1 (single isomer, unassigned) [Example 484]				
0.09	34.9	CC1(NC(=O)O[C@@H]2CC[C@H](c3cc(NC(=O)Cc4cc(F)cc(F)c4)n[nH]3)C2)CCOC1 (single isomer, unassigned) [Example 120]				
0.35	31.3	Cc1ccc(C(=O)Nc2cc([C@H]3CC[C@@H](OC(=O)NC(C)CC(F)(F)F)C3)[nH]n2)cn1 (single isomer, unassigned) [Example 70]				
0.22	9.15	COc1cc(CC(=O)Nc2cc([C@H]3CC[C@@H](OC(=O)N4CCC4C)C3)[nH]n2)ccn1 (single isomer, unassigned) [Example 153]				
0.59	18.2	Cc1cc(CC(=O)Nc2cc([C@H]3CC[C@@H](OC(=O)N4CCC4C)C3)[nH]n2)on1 (single isomer, unassigned) [Example 589]				
1.14	> 95.3	COCc1cc(C(=O)Nc2cc([C@H]3CC[C@@H](OC(=O)NC(C)CC(F)(F)F)C3)[nH]n2)n(C)n1 (single isomer, unassigned) [Example 9]				
1.34	10.7	CCC(CO)CNC(=O)O[C@@H]1CC[C@H](c2cc(NC(=O)Cc3cc(F)cc(F)c3)n[nH]2)C1 (single isomer, unassigned) [Example 537]				
0.26	20.6	CCCNC(=O)O[C@H]1CC[C@@H](c2cc(NC(=O)C3COc4ccccc43)n[nH]2)C1 (single isomer, unassigned) [Example 24]				
0.1	4.96	Cc1ccc(CC(=O)Nc2cc([C@H]3CC[C@@H](OC(=O)NC(C)CC(F)(F)F)C3)[nH]n2)cn1 (single isomer, unassigned) [Example 76]				
0.33	21.6	COc1cc(CC(=O)Nc2cc([C@H]3CC[C@@H](OC(=O)NC(C)CC(F)F)C3)[nH]n2)ccn1 (single isomer, unassigned) [Example 98]				
0.19	12.6	Cc1cnc(CC(=O)Nc2cc([C@H]3CC[C@@H](OC(=O)NC(C)CC(F)(F)F)C3)[nH]n2)o1 (single isomer, unassigned) [Example 82]				
0.26	9.59	Cc1ccc(CC(=O)Nc2cc([C@H]3CC[C@@H](OC(=O)NC(C)CC(F)(F)F)C3)[nH]n2)cn1 (single isomer, unassigned) [Example 75]				

Structure (SMILES)	Ki [2] [nM]	Ki (GSK3β (H350L) [3]) [nM]	Ki (GSK3β (H350L) [1]) [nM]	Ki (CDK6/cyclin D3) [nM]	Ki (CDK9) [nM]	Ki (CDK1/cyclin A2) [nM]
Cc1cc(CC(=O)Nc2cc([C@H]3CC[C@@H](OC(=O)NC4(C)CC4)C3)[nH]n2)on1 [Example 15, (1R,3S)-3-(3-{[(3-methyl-1,2-oxazol-5-yl)acetyl]amino}-1H-pyrazol-5-yl)cyclopentyl (1-methylcyclopropyl)carbamate]	0.17		29.3	58.6	6.3	16.4
Cc1ncc(CC(=O)Nc2cc([C@H]3CC[C@@H](OC(=O)N4C[C@@H](C#N)[C@@H]4C)C3)[nH]n2)s1 (single isomer, unassigned) [Example 160]	0.15	1.72				
Cc1cnc(CC(=O)Nc2cc([C@@H]3CC[C@H](OC(=O)NC4(C)CCOC4)C3)[nH]n2)o1 (single isomer, unassigned) [Example 476]	0.45	30.9				
CCC(CO)CNC(=O)O[C@@H]1CC[C@H](c2cc(NC(=O)Cc3cnc(C)s3)n[nH]2)C1 (single isomer, unassigned) [Example 529]	0.73	3.92				
CCC(NC(=O)O[C@@H]1CC[C@H](c2cc(NC(=O)Cc3cc(C)no3)n[nH]2)C1)C(F)(F)F (single isomer, unassigned) [Example 396]	2.1	139				
Cc1ncc(CC(=O)Nc2cc([C@H]3CC[C@@H](OC(=O)NC(C)C(C)(F)F)C3)[nH]n2)s1 (single isomer, unassigned) [Example 391]	1.38	38				
CCC(NC(=O)O[C@@H]1CC[C@H](c2cc(NC(=O)Cc3cc(C)no3)n[nH]2)C1)C(F)(F)F (single isomer, unassigned) [Example 397]	1.87	155				

— US11014911B2, “CDK2 inhibitors” (Pfizer Inc., priority 2019, dated 2021)
